From US7126027B2, “N-[(1-dimethylaminocycloalkyl)methyl]benzamide derivatives” (Akzo Nobel N.V., priority 2002, dated 2006) come the findings set out here.

The target of the first assay is T1, hGlyT-2 (Homo sapiens, UniProt Q9Y345).
T1 construct: expressed in transfected cells
T1 sequence (Q9Y345 1-797): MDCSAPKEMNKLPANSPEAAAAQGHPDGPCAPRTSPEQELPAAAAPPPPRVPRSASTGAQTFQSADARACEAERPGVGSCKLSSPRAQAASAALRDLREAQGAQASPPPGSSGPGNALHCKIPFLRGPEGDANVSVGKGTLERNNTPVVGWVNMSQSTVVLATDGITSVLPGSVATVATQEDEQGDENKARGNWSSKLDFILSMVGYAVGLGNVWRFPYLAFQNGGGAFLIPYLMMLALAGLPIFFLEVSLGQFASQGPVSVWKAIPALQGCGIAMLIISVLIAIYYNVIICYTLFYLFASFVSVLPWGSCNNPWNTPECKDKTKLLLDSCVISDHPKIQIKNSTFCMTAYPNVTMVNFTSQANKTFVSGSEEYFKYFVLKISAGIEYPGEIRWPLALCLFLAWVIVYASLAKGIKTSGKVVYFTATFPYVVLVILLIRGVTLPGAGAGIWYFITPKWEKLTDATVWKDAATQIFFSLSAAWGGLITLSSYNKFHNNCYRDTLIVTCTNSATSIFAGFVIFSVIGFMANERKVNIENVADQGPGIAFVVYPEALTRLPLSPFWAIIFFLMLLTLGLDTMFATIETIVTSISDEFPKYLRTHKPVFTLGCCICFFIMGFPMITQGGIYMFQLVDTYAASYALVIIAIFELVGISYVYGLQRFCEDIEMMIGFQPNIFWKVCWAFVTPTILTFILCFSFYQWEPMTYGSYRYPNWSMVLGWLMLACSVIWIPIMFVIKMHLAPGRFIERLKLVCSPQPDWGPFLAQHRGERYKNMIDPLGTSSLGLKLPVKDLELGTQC
Briefly: Glycine uptake assay, CHO cells stably transfected with hGlyT-2. The assay is classed as cell-based. To be noted: [3H]-glycine 30 μM, 37° C., 10 minutes, read-out: Inhibition of glycine transport by hGlyT-2 IC50. How it is done: Glycine uptake assays were performed as described by Morrow et al. (FEBS Lett. 1998, 439, 334–340) using CHO cells stably transfected with either hGlyT-1b or hGlyT-2. Cells were grown in 96 well microtitre plates (30,000 cells/well) for 24–48 hours before removal of culture medium and addition of Hanks Balanced Salt Solution (HBSS) containing [^3H]-glycine (30 μM) and varying concentrations of test compounds. Plates were incubated at 37° C. for 10 minutes and uptake terminated by washing three times with ice-cold HBSS. After removal of excess liquid, scintillation cocktail was added to each well, prior to counting in a plate counter. Data were analysed using the GraphPad Prism™ analysis package and the sigmoid dose-response curve fitting option to produce IC50 (the concentration of test compound producing 50% inhibition of uptake) values.
A word on the IC50: it is the concentration at which inhibition is half-maximal. As for `COc1cc(C(=O)NCC2(N(C)C)CCCC2)cc(OC)c1OC1CCCC1` [Example 21, 4-Cyclopentyloxy-3,5-dimethoxy-N-[(1-dimethylaminocyclopentyl)methyl]benzamide], the IC50 came to 329 nM. `COc1cc(C(=O)NCC2(N(C)C)CCCC2)cc(OC)c1OCCc1ccccc1` [Example 18, 3,5-Dimethoxy-4-(2-phenylethoxy)-N-[(1-dimethylaminocyclopentyl)methyl]benzamide]: the IC50 amounted to 156 nM. Still for that read-out and setting: under `Cc1cc(C(=O)NCC2(N(C)C)CCCC2)cc(C)c1OCc1ccccc1` [Example 9, 4-Benzyloxy-3,5-dimethyl-N-[(1-dimethylaminocyclopentyl)methyl]benzamide] stands 27 nM; under `Cc1cc(C(=O)NCC2(N(C)C)CCCC2)cc(C)c1OCc1ccsc1` [Example 20, 3,5-Dimethyl-4-(3-thienyl)methoxy-N-[(1-dimethylaminocyclopentyl)methyl]benzamide], 32 nM; under `COc1cc(C(=O)NCC2(N(C)C)CCCCC2)cc(OC)c1OCc1ccccc1` [Example 5, 4-Benzyloxy-3,5-dimethoxy-N-[(1-dimethylaminocyclohexyl)methyl]benzamide], 84 nM. For the molecule `COc1cc(C(=O)NCC2(N(C)C)CCCC2)cc(OC)c1OCC(C)C` [Example 15, 3,5-Dimethoxy-4-(2-methylpropoxy)-N-[(1-dimethylaminocyclopentyl)methyl]benzamide], the IC50 was found to be 79 nM.

On to `Cc1cc(C(=O)NCC2(N(C)C)CCCCCC2)cc(C)c1OCc1ccccc1` [Example 16, 4-Benzyloxy-3,5-dimethyl-N-[(1-dimethylaminocycloheptyl)methyl]benzamide], for which the IC50 is 92 nM.

In the case of `COc1cc(C(=O)NCC2(N(C)C)CCCC2)cc(OC)c1OCc1ccc(C)cc1` [Example 10, 3,5-Dimethoxy-4-(4-methylbenzyloxy)-N-[(1-dimethylaminocyclopentyl)methyl]benzamide], the IC50 is 30 nM.

As to `COc1cc(C(=O)NCC2(N(C)C)CCCC2)cc(OC)c1OCc1ccc(C(F)(F)F)cc1` [Example 14, 3,5-Dimethoxy-4-(4-trifluoromethylbenzyloxy)-N-[(1-dimethylaminocyclopentyl)methyl]benzamide], the IC50 amounted to 76 nM. As to `COc1cc(C(=O)NCC2(N(C)C)CCCC2)cc(OC)c1OCc1ccc(Cl)cc1` [Example 12, 4-(4-Chloro)benzyloxy-3,5-dimethoxy-N-[1-(dimethylaminocyclopentyl)methyl]benzamide], the IC50 was determined as 44 nM. Consider `COc1cc(C(=O)NCC2(N(C)C)CCCC2)cc(OC)c1OC(C)c1ccccc1` (stereo not drawn) [Example 11, 3,5-Dimethoxy-4-(1-phenyl)ethoxy-N-[1-(dimethylaminocyclopentyl)methyl]benzamide], for which the IC50 turned out to be 35 nM.

For `COc1cc(C(=O)NCC2(N(C)C)CCCC2)cc(OC)c1OCc1cccc2ccccc12` [Example 19, 3,5-Dimethoxy-4-(1-naphthyl)methoxy-N-[(1-dimethylaminocyclopentyl)methyl]benzamide], the IC50 came to 215 nM. As for `Cc1cc(C(=O)NCC2(N(C)C)CCC2)cc(C)c1OCc1ccccc1` [Example 8, 4-Benzyloxy-3,5-dimethyl-N-[1-(dimethylaminocyclobutyl)methyl]benzamide], the IC50 worked out at 16 nM. Same read-out and setting: under `CCCCOc1c(OC)cc(C(=O)NCC2(N(C)C)CCCC2)cc1OC` [Example 7, 4-n-Butyloxy-3,5-dimethoxy-N-[(1-dimethylaminocyclopentyl)methyl]benzamide] stands 77 nM; under `COc1cc(C(=O)NCC2(N(C)C)CCCCC2)cc(OC)c1OCC1CCCCC1` [Example 13, 4-(Cyclohexylmethoxy)-3,5-dimethoxy-N-[(1-dimethylaminocyclohexyl)methyl]benzamide], 71 nM.

The subject of a further assay is rats. Briefly: Chung model of neuropathy (L5 spinal nerve ligation, von Frey withdrawal threshold). It counts as in vivo, rat. To be noted: twenty minutes after subcutaneous injection; Example 2 20 mg/kg, morphine sulphate 2 mg/kg, gabapentin 50 mg/kg; post-surgery pre-drug 0.8±0.1 g.
As to `NCC1(CC(=O)O)CCCCC1` [gabapentin], the Withdrawal threshold is 3.2 ± 1.5 g. Same read-out and setting: under `CN1CC[C@]23c4c5ccc(O)c4O[C@H]2[C@@H](O)C=C[C@H]3[C@H]1C5.O=S(=O)(O)O` [morphine, morphine sulphate] stands 4.2 ± 1.5 g.

Take `COc1cc(C(=O)NCC2(N(C)C)CCCC2)cc(OC)c1OCc1ccccc1` [Example 2, 4-Benzyloxy-3,5-dimethoxy-N-[1-(dimethylaminocyclopentyl)methyl]benzamide]: the Withdrawal threshold came out at 4.7 ± 1.15 g.
